Data on 3 molecules can be found in BindingDB's records for doi:10.1016/j.bmcl.2007.12.038 (St. Jude Children'S Research Hospital, 2008).

By IC50 is commonly meant the concentration needed to halve the response being measured.

SMILES strings stand for the structures.

Assay [1] in a line: Binding affinity to GST tagged human beta 2 adrenergic receptor PDZ1 domain.
Assay [2] in a line: Binding affinity to GST tagged human CFTR PDZ2 domain.

Regarding `Cc1cc2[nH]c(C(O)CCCC(=O)O)c(CCc3ccccc3)c2cc1C(=O)O` (stereo unspecified) [2-(4-carboxy-1-hydroxybutyl)-6-methyl-3-phenethyl-1H-indole-5-carboxylic acid], the values for the IC50 in assay [1] and in assay [2] were 777 µM and 330 µM, respectively.
On the same counts, the results for `CCCCCc1c(CO)c2cc(C)c(C(=O)O)cc2n1CCc1ccccc1` [3-(hydroxymethyl)-5-methyl-2-pentyl-1-phenethyl-1H-indole-6-carboxylic acid] are 280 µM and 380 µM.
Turning to `CCCCC(O)c1[nH]c2cc(C)c(C(=O)O)cc2c1CCc1ccccc1` (stereo unspecified) [2-(1-hydroxypentyl)-6-methyl-3-phenethyl-1H-indole-5-carboxylic acid], the IC50 in assay [1] turned out to be 1540 µM; in assay [2], 160 µM.
